According to ChEMBL document CHEMBL3044656, “Influence of soil fumigation on 2,4-D and dicamba carryover in fresh market tomato” (Crop Prot, 2006):

Experiments:
[1] = Half life of the compound
Solanum lycopersicum [2] = assay: Phytotoxicity in Solanum lycopersicum (tomato) plant in non-fumigated soil assessed as decrease in total fruit yield at 1.14 to 2.28 kg/ha after 174 days relative to untreated control; format: organism-based; design: scale not given: the % may be the effect or the level left; conditions: in vivo, other, 4176 h
Solanum lycopersicum [3] = assay: Phytotoxicity in Solanum lycopersicum (tomato) plant in fumigated soil assessed as plant vigour at 2.28 kg/ha after 134 days (reference value: 82%); format: organism-based; conditions: in vivo, other, 3216 h
Solanum lycopersicum [4] = assay: Phytotoxicity in Solanum lycopersicum (tomato) plant assessed as plant vigour at 1.14 kg/ha after 134 days (reference value: 82%); format: organism-based; conditions: in vivo, 3216 h

Row | SMILES | half-life [1] [days] | Activity (Solanum lycopersicum [2]) [%] | Activity (Solanum lycopersicum [3]) [%] | Activity (Solanum lycopersicum [4]) [%]
1 | O=C(O)COc1ccc(Cl)cc1Cl [2,4-DICHLOROPHENOXYACETIC ACID] | 10 | 9 | 80 | 83
2 | COc1c(Cl)ccc(Cl)c1C(=O)O [3,6 DICHLOROMETHOXYBENZOIC ACID] | 14 | – | – | –
